Measurements: patent US8357413B2, “Process for the disinfection and/or preservation of harvested plant material” (Solvay (Societe Anonyme), priority 2003, dated 2013)

Tested on: aerobic micro-organism activity
Assay: Example 4: aerobic stability of forage (temperature rise in insulated boxes)
Method: The treatments shown in examples 1 and 2 were also evaluated for their aerobic stability i.e. under conditions representing opening of the clamp to use the forage as feed thus allowing air to enter the clamp. In this case comparisons were made with untreated forage as in examples 1 and 2 and also with forage treated with a typical acid product, formic acid (85% w/w) applied at 2.5 liters per tonne of grass. 750 g of the forages were stored in insulated boxes placed in a controlled environment at 20-22° C. A temperature probe was inserted into each box linked to a data logger to monitor temperature changes hourly over a 6 day period.

O=CO [Formic Acid, formic acid]
Temperature Day 0 (750 g forage in insulated boxes at 20-22° C., Day 0): 17.8 °C
Temperature Day 6 (750 g forage in insulated boxes at 20-22° C., Day 6): 20.5 °C
Temperature increase (Day 0 to Day 6): +2.7 °C
